Test system: HaCaT keratinocyte line
Test: Enzymatic hydrolysis by esterase activity in HaCaT keratinocytes
Format: in vitro ADME, human
Description: 150 μl of a 1 mM solution in dimethyl sulphoxide (DMSO) are placed in a dish containing an HaCaT keratinocyte line (75 cm^2) in 15 ml of serum alone. The cells are placed in the incubator at 37° C. for 24 hours. The medium is extracted with 15 ml of ethyl acetate. The organic phase is then isolated and evaporated off.
The cells are extracted by sonication into 2×15 ml of an ice-cold mixture consisting of chloroform and methanol (1:2.5). After centrifugation, the organic phase collected is evaporated to dryness. For each test, a control is performed on a dish containing cells and a substrate-free medium to take account of a possible chemical degradation of the substrate.
The presence of esterase activity in the human keratinocytes is checked by means of a substrate, 4-methylumbelliferyl palmitate. The precursor according to the invention, used as pseudosubstrate, is the tocopheryl retinyl succinate prepared according to example 1.

Row | SMILES | Degree of hydrolysis in 24 hours of incubation (150 μl of 1 mM DMSO solution in 15 ml serum, HaCaT keratinocytes, 37° C., 24 hours) | Degree of hydrolysis in 24 hours of incubation (human, 24 h, 10 µM)
1 | CCCCCCCCCCCCCCCC(=O)Oc1ccc2c(C)cc(=O)oc2c1 [4-Methylumbelliferyl palmitate, 4-methylumbelliferyl palmitate] | 2.7% ± 2% | 
2 | CC1=C(/C=C/C(C)=C/C=C/C(C)=C/COC(=O)CCC(=O)Oc2c(C)c(C)c3c(c2C)CCC(C)(CCCC(C)CCCC(C)CC(C)C)O3)C(C)(C)CCC1 (centres unmarked) [Tocopheryl retinyl succinate, O-(4-Oxo-4-{[2,5,7,8-tetramethyl-2-(4,8,12-trimethyltridecyl)-3,4-dihydro-2H-chromen-6-yl]oxy}butanoyl)retinol] |  | 5% ± 3%

From patent US7084172B2, “Bioprecursors for percutaneous application” (Pierre Fabre Dermo-Cosmetique, priority 2001, dated 2006)
